Measured values: patent US20240050432A1 (Infinity Pharmaceuticals, Inc., priority 2020, published 2024)
Where two headings read alike, the source gives them in different places.

What was measured:
[1] = tested on: advanced urothelial carcinoma; experiment: Phase 2 randomized study of eganelisib + nivolumab vs nivolumab: response, PFS, OS; type: in vivo, human; conditions: snapshot Jun. 26, 2021
Text: Methods: Eligible patients (pts) with mUC who progressed on >1 platinum-based chemotherapy regimen and were CPI naïve were enrolled. […] Pts were stratified by baseline circulating monocytic myeloid derived suppressor cells (mMDSC) level. The primary endpoint was objective response rate (ORR) per RECIST v1.1 in pts with high baseline mMDSC levels. Other endpoints included ORR, progression free survival (PFS) and overall survival (OS) in all pts, PD-L1+/−pts and pts with hepatic adverse events (AE).
Advanced platinum refractory 2nd line urothelial cancer patients: Inclusion/exclusion criteria per CheckMate-275; MDSC* all corners (stratified); PD-L1** status all corners (non-stratified). • * Circulating mMDSC levels measured in baseline peripheral blood samples based on a Clinical Laboratory Improvement Amendments (CLIA)-certified flow cytometry assay (low [<22.3%] or high [≥22.3%] or ≥/<the median MDSC level of patients in this trial) • ** PD-L1 expression measured in baseline/archival tumor biopsies with Dako PD-L1 immunohistochemical 28-8 pharmDx kit approved for nivolumab in UC, except 2 biopsies tested with 22C3 PD-L1 antibody prior to study (Tumor Proportion Score≥1% cutoff for PD-L1 (+)) • Primary objective: ORR in MDSC High • Secondary objectives: ORR, TTR, DOR, and PFS in total population+MDSC subsets; safety; PK • Exploratory objectives: safety and efficacy in biomarker subsets, including PD-L1; OS
The dose for nivolumab is 480 mg Q4W.

interferon alpha pathway = experiment: Peripheral blood gene set enrichment, day 15 vs. day 0; type: in vivo, human
Text: (§1) In all patients (day 15 vs. day 0): interferon gamma pathway: ES=0.81, p<0.01 (combination, n=31) vs. ES=0.51, p=0.28 (nivolumab, n=14); interferon alpha pathway: ES=0.87, p<0.01 (combination, n=31) vs. ES=0.53, p=0.39 (nivolumab, n=14). In PD-L1 negative patients (day 15 vs. day 0): interferon gamma pathway: ES=0.82, p<0.01 (combination, n=21) vs. ES=0.55, p=0.15 (nivolumab, n=5); interferon alpha pathway: ES=0.88, p<0.01 (combination, n=21) vs. ES=0.53, p=0.35 (nivolumab, n=5).

interferon gamma pathway = experiment: as above; type: in vivo, human
Text: as §1

[2] = tested on: metastatic urothelial carcinoma (mUC); conditions: CheckMate-275, cited from earlier work
PD-L1 = experiment: Paired tumor biopsies in TNBC phase II study: PD-L1 expression; type: in vivo, human; conditions: 11 paired tumor biopsies; triplet regimen
[3] = Hepatic TEAEs by eganelisib dose in combination with nivolumab (phase 1 Part C, phase 2); type: in vivo, human
[4] = Eganelisib exposures (Cmax, AUC0-24 hrs) with combination therapies, 3 clinical studies; type: in vivo, human; conditions: for observed highest individual concentration value: PK cutoff June-July 2020; for Cmax / AUC(0-t): human, in vivo
[5] = PD-L1 negative patients, n=21 vs n=5
[6] = 30 mg QD, C1D1, model-predicted
[7] = 30 mg QD, C2D1, model-predicted
[8] = 40 mg QD, C1D1, model-predicted
[9] = 40 mg QD, C2D1, model-predicted

For nivolumab, the “overall survival probability at one year landmark” value ([1]; PD-L1 negative patients) was 17%, the “overall survival probability at one year landmark” value ([1]; all patients) was 32% and the “gene set Enrichment Score (ES), interferon alpha pathway” value (interferon alpha pathway; [5]) was 0.53. For the same molecule, the “gene set Enrichment Score (ES), interferon alpha pathway” value (interferon alpha pathway; all patients, n=31 vs n=14) was 0.53, the “gene set Enrichment Score (ES), interferon gamma pathway” value (interferon gamma pathway; [5]) was 0.55 and the “gene set Enrichment Score (ES), interferon gamma pathway” value (interferon gamma pathway; all patients, n=31 vs n=14) was 0.51. For the same molecule, the “Median OS (95% CI)” value ([2]; All (n = 270)) was 8.6 (6.1-11.3) mo, the “Median PFS (95% CI)” value ([2]; All (n = 270)) was 1.9 (1.9, 2.3) mo and the “ORR (95% CI)” value ([2]; All (n = 270)) was 20 (16-26) %. For the same molecule, the “Median OS (95% CI)” value ([2]; PD-L1 < 1% (n = 146)) was 6.0 (4.4-8.1) mo, the “Median PFS (95% CI)” value ([2]; PD-L1 < 1% (n = 146)) was 1.9 (1.7, 2.0) mo and the “ORR (95% CI)” value ([2]; PD-L1 < 1% (n = 146)) was 16 (10-23) %. The “Median OS (95% CI)” value ([2]; PD-L1 ≥ 1% (n = 124)) was 11.9 (9.1-19.1) mo, the “Median PFS (95% CI)” value ([2]; PD-L1 ≥ 1% (n = 124)) was 3.5 (1.9, 3.7) mo and the “ORR (95% CI)” value ([2]; PD-L1 ≥ 1% (n = 124)) was 26 (18-34) %.

For `C[C@H](NC(=O)c1c(N)nn2cccnc12)c1cc2cccc(C#Cc3cnn(C)c3)c2c(=O)n1-c1ccccc1` [Compound 1, eganelisib], the “change of PD-L1 status/expression in paired tumor biopsies” value (PD-L1) was “on-mechanism conversion of patients from PD-L1(−) to PD-L1(+) and increase in PD-L1 expression in PD-L1(+) patients”, the “subjects with Grade 3 hepatic TEAE” value ([3]; eganelisib 30 mg QD with nivolumab 480 mg Q4W) was under 20% and the “subjects with Hepatic TEAEs” value ([3]; eganelisib 40 mg QD with nivolumab 480 mg Q4W) was over 20%. The “Cmax, Max” value [4, 6] was 1750 ng/mL, the “Cmax, Min” value [4, 6] was 637 ng/mL and the “Cmax, Max” value [4, 7] was 4070 ng/mL. For the same molecule, the “Cmax, Min” value [4, 7] was 684 ng/mL, the “observed highest individual concentration value” ([4]; 30 mg QD, across all 3 studies) was 4.42 µg/mL and the “Cmax, Max” value [4, 8] was 3630 ng/mL. The “Cmax, Min” value [4, 8] was 346 ng/mL, the “Cmax, Max” value [4, 9] was 8830 ng/mL and the “Cmax, Min” value [4, 9] was 480 ng/mL. The “observed highest individual concentration value” ([4]; 40 mg QD, across all 3 studies) was 11.4 µg/mL, the “observed highest individual concentration lower for 30 mg QD versus 40 mg QD” value ([4]; across all 3 studies) was 61% and the Cmax ([4]; 30 mg QD, C1D1, model-predicted, read-out: Cmax, Mean) was 1020 ng/mL. For the same molecule, the Cmax ([4]; 30 mg QD, C1D1, model-predicted, read-out: Cmax, Median) was 978 ng/mL, the AUC(0-t) ([4]; 30 mg QD, C2D1, model-predicted, read-out: AUC0-24 hrs, GeoMean) was 29200 ng·h/mL and the AUC(0-t) ([4]; 30 mg QD, C2D1, model-predicted, read-out: AUC0-24 hrs, Mean) was 33600 ng·h/mL. For the same molecule, the AUC(0-t) ([4]; 30 mg QD, C2D1, model-predicted, read-out: AUC0-24 hrs, Median) was 25800 ng·h/mL, the Cmax ([4]; 30 mg QD, C2D1, model-predicted, read-out: Cmax, GeoMean) was 1680 ng/mL and the Cmax ([4]; 30 mg QD, C2D1, model-predicted, read-out: Cmax, Median) was 1530 ng/mL. The AUC(0-t) ([4]; 40 mg, 40 mg QD, C1D1, model-predicted, read-out: AUC0-24 hrs, GeoMean) was 26200 ng·h/mL, the AUC(0-t) ([4]; 40 mg, 40 mg QD, C1D1, model-predicted, read-out: AUC0-24 hrs, Mean) was 28400 ng·h/mL and the AUC(0-t) ([4]; 40 mg, 40 mg QD, C1D1, model-predicted, read-out: AUC0-24 hrs, Median) was 26000 ng·h/mL. For the same molecule, the Cmax ([4]; 40 mg, 40 mg QD, C1D1, model-predicted, read-out: Cmax, GeoMean) was 1550 ng/mL, the Cmax ([4]; 40 mg, 40 mg QD, C1D1, model-predicted, read-out: Cmax, Mean) was 1650 ng/mL and the Cmax ([4]; 40 mg, 40 mg QD, C1D1, model-predicted, read-out: Cmax, Median) was 1560 ng/mL. For the same molecule, the AUC(0-t) ([4]; 40 mg, 40 mg QD, C2D1, model-predicted, read-out: AUC0-24 hrs, GeoMean) was 42100 ng·h/mL, the AUC(0-t) ([4]; 40 mg, 40 mg QD, C2D1, model-predicted, read-out: AUC0-24 hrs, Mean) was 49600 ng·h/mL and the AUC(0-t) ([4]; 40 mg, 40 mg QD, C2D1, model-predicted, read-out: AUC0-24 hrs, Median) was 41400 ng·h/mL. For the same molecule, the Cmax ([4]; 40 mg, 40 mg QD, C2D1, model-predicted, read-out: Cmax, GeoMean) was 2470 ng/mL, the Cmax ([4]; 40 mg, 40 mg QD, C2D1, model-predicted, read-out: Cmax, Mean) was 2770 ng/mL and the Cmax ([4]; 40 mg, 40 mg QD, C2D1, model-predicted, read-out: Cmax, Median) was 2420 ng/mL. It also gave an AUC(0-t) ([4]; oral, 30 mg QD, C1D1, model-predicted, read-out: AUC0-24 hrs, GeoMean) of 16100 ng·h/mL, an AUC(0-t) ([4]; oral, 30 mg QD, C1D1, model-predicted, read-out: AUC0-24 hrs, Mean) of 16700 ng·h/mL and an AUC(0-t) ([4]; oral, 30 mg QD, C1D1, model-predicted, read-out: AUC0-24 hrs, Median) of 15900 ng·h/mL. It also gave a Cmax ([4]; oral, 30 mg QD, C1D1, model-predicted, read-out: Cmax, GeoMean) of 993 ng/mL and a Cmax ([4]; oral, 30 mg QD, C2D1, model-predicted, read-out: Cmax, Mean) of 1860 ng/mL.
